Values of other authors as cited in patent publication US20250000839A1, “PHARMACEUTICAL COMPOSITION COMPRISING ENAVOGLIFLOZIN” (DAEWOONG PHARMACEUTICAL CO., LTD., priority 2021, published 2025).

How the values were obtained:
[1] = phase 2 clinical trials; 0.1 mg, 0.3 mg and 0.5 mg groups
[2] = at a very low dose of 1/100th of the dose compared to the same class of drugs
human SGLT2 = molecular target: T1, human SGLT2 (Homo sapiens, UniProt P31639); conditions: disclosed in U.S. Patent Publication No. 2015/0152075
T1 sequence (P31639 1-672): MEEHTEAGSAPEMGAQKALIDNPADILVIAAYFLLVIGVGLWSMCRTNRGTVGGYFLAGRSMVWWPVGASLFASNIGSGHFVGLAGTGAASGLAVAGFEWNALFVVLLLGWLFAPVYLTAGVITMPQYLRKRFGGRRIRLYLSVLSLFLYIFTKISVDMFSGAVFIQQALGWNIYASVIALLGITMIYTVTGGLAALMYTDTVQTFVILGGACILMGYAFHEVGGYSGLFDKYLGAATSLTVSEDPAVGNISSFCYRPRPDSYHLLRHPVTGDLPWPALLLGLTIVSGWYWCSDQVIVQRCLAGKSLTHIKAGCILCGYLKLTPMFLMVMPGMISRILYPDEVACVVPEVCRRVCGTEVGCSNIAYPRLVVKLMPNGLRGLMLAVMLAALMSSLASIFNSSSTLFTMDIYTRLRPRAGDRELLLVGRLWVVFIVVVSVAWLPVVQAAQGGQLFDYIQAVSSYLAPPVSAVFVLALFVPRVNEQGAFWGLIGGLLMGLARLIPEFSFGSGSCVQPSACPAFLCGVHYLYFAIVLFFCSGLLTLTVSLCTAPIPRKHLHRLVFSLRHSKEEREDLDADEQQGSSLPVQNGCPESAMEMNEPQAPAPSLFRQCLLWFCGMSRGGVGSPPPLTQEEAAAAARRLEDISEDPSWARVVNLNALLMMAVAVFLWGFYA

For `OC[C@H]1O[C@@H](c2cc(Cc3ccc(C4CC4)cc3)c(Cl)c3c2CCO3)[C@H](O)[C@@H](O)[C@@H]1O` [enavogliflozin, (2S,3R,4R,5S,6R)-2-(7-chloro-6-(4-cyclopropylbenzyl)-2,3-dihydrobenzofuran-4-yl)-6-(hydroxymethyl)tetrahydro-2H-pyran-3,4,5-triol], the “blood sugar-lowering effect compared to the placebo” value [1] is listed as “statistically significant blood sugar-lowering effect”, the “urinary sugar secretion (glucose excreted in urine) efficacy” value [2] is listed as “excellent” and the “inhibitory effect on human SGLT2 activity” value (human SGLT2) is listed as “excellent inhibitory effect”.
